According to patent US20120101083A1, “S1P1 AGONISTS COMPRISING A BICYCLIC N-CONTAINING RING” (GLAXO GROUP LIMITED, priority 2009, published 2012):
Where a name gives a salt, the structure may show the parent alone.

Key:
[1] = molecular target: T1, S1P1 receptor (S1P1 expressing RH7777 membranes) (Homo sapiens, UniProt P21453); test: S1P1 GTPγS assay; type: biochemical; details: tested in one of the above S1P1 assays (two GTPγS formats)
T1 construct: expressed in transfected cells; host or cells: RH7777 cells (membranes)
T1 sequence (P21453 whole entry): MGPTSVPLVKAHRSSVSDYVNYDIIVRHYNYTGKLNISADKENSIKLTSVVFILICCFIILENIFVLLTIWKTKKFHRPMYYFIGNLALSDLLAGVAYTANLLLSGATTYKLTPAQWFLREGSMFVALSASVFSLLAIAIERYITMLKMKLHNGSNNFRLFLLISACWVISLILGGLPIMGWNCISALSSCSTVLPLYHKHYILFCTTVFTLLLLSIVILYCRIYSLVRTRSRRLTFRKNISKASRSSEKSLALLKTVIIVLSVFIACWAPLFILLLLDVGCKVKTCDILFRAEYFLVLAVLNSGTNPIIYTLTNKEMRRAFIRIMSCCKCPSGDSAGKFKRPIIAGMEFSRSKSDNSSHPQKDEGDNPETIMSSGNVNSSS
How it was run: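 Membranes from RH7777 cells expressing human S1P1 (1.5 μg/well) precoupled 30 min on ice to WGA SPA beads in 20 mM HEPES pH 7.4, 10 mM MgCl2, 100 mM NaCl, with 10 μM GDP and 90 μg/ml saponin. [35S]-GTPγS 0.5 nM final added with compound; SPA signal read immediately.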

[2] = molecular target: T2, S1P1 (PathHunter CHO-K1 EDG1 β-Arrestin cell line) (Homo sapiens, UniProt P21453); test: S1P-1 β-Arrestin recruitment assay; type: cell-based; details: CHO-K1 EDG1 β-Arrestin cells, chemi-luminescence
T2 construct: host or cells: PathHunter CHO-K1 EDG1 β-Arrestin cell line
T2 sequence (P21453 whole entry): as above
T2 sequence (P32121 whole entry partner): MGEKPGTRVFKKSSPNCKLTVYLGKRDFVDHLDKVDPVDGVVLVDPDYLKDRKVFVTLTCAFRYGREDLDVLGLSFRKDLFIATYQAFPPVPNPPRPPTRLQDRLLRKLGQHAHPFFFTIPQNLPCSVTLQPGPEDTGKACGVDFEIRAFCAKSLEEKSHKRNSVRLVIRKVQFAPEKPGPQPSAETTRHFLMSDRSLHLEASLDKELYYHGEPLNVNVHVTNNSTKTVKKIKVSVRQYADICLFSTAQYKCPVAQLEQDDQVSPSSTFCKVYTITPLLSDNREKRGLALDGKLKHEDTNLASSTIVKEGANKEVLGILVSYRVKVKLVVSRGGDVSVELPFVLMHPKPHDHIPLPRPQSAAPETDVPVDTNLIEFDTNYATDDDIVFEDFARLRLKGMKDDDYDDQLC
How it was run: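 CHO-K1 cells expressing S1P1 and β-arrestin 2 fused to complementing β-galactosidase fragments, at 1×10^4 cells/well in pH 7.4 buffer with 0.1% BSA. Compound exposure 90 min at 37 °C then 15 min room temperature; chemiluminescent substrate added for 60 min before luminescence read.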

Compound	EC50 [1]	EC50 [2]
CC(C)Oc1ccc(-c2nc(-c3cccc4c3CCN(C(=O)[C@@H](N)CO)C4)no2)cc1C#N [Example 89, 2-[(1-methylethyl)oxy]-5-[3-(2-L-seryl-1,2,3,4-tetrahydro-5-isoquinolinyl)-1,2,4-oxadiazol-5-yl]benzonitrile hydrochloride]	1 nM	≤ 10 nM
CC(C)Oc1ccc(-c2nc(-c3cccc4c3CCN(C(=O)[C@H](N)CO)C4)no2)cc1C#N [Example 90, 2-[(1-methylethyl)oxy]-5-[3-(2-D-seryl-1,2,3,4-tetrahydro-5-isoquinolinyl)-1,2,4-oxadiazol-5-yl]benzonitrile hydrochloride]	≤ 10 nM	≤ 100 nM
CC(C)Oc1ccc(-c2nc(-c3ccc4c(c3)CCN(CC(=O)N3CCOCC3)CC4)no2)cc1C#N [Example 92, 2-[(1-methylethyl)oxy]-5-(3-{3-[2-(4-morpholinyl)-2-oxoethyl]-2,3,4,5-tetrahydro-1H-3-benzazepin-7-yl}-1,2,4-oxadiazol-5-yl)benzonitrile hydrochloride]	≤ 10 nM	≤ 100 nM
CC(C)Oc1ccc(-c2nc(-c3ccc4c(c3)CCN(CC(=O)N3CC(O)C3)CC4)no2)cc1C#N [Example 93, 5-(3-{3-[2-(3-hydroxy-1-azetidinyl)-2-oxoethyl]-2,3,4,5-tetrahydro-1H-3-benzazepin-7-yl}-1,2,4-oxadiazol-5-yl)-2-[(1-methylethyl)oxy]benzonitrile hydrochloride]	≤ 10 nM	≤ 10 nM
COC(=O)NCCN1CCc2ccc(-c3noc(-c4ccc(OC(C)C)c(C#N)c4)n3)cc2CC1 [Example 100, methyl {2-[7-(5-{3-cyano-4-[(1-methylethyl)oxy]phenyl}-1,2,4-oxadiazol-3-yl)-1,2,4,5-tetrahydro-3H-3-benzazepin-3-yl]ethyl}carbamate]	≤ 10 nM	≤ 10 nM
CCNC(=O)NCCN1CCc2ccc(-c3noc(-c4ccc(OC(C)C)c(C#N)c4)n3)cc2CC1 [Example 105, N-{2-[7-(5-{3-cyano-4-[(1-methylethyl)oxy]phenyl}-1,2,4-oxadiazol-3-yl)-1,2,4,5-tetrahydro-3H-3-benzazepin-3-yl]ethyl}-N′-ethylurea]	≤ 10 nM	≤ 100 nM
CC(C)Oc1ccc(-c2nc(-c3ccc4c(c3)CCN(C(=O)CN3CC(O)C3)CC4)no2)cc1C#N [Example 106, 5-(3-{3-[(3-hydroxy-1-azetidinyl)acetyl]-2,3,4,5-tetrahydro-1H-3-benzazepin-7-yl}-1,2,4-oxadiazol-5-yl)-2-[(1-methylethyl)oxy]benzonitrile hydrochloride]	≤ 1000 nM	≤ 100 nM
CC(C)Oc1ccc(-c2nc(-c3ccc4c(c3)CCN(CC(=O)NCCO)CC4)no2)cc1C#N [Example 111, 2-[7-(5-{3-cyano-4-[(1-methylethyl)oxy]phenyl}-1,2,4-oxadiazol-3-yl)-1,2,4,5-tetrahydro-3H-3-benzazepin-3-yl]-N-(2-hydroxyethyl)acetamide hydrochloride]	≤ 100 nM	≤ 10 nM
CC(C)Nc1ncc(-c2nc(-c3ccc4c(c3)CCN(C(=O)CN)CC4)no2)cc1C#N [Example 112, 5-[3-(3-glycyl-2,3,4,5-tetrahydro-1H-3-benzazepin-7-yl)-1,2,4-oxadiazol-5-yl]-2-[(1-methylethyl)amino]-3-pyridinecarbonitrile]	≤ 1000 nM	≤ 100 nM
CC(C)Nc1ncc(-c2nc(-c3ccc4c(c3)CCN(C[C@H](O)CO)CC4)no2)cc1C#N [Example 114, 5-(3-{3-[(2S)-2,3-dihydroxypropyl]-2,3,4,5-tetrahydro-1H-3-benzazepin-7-yl}-1,2,4-oxadiazol-5-yl)-2-[(1-methylethyl)amino]-3-pyridinecarbonitrile]	≤ 1000 nM	≤ 100 nM
CCOc1ncc(-c2nc(-c3ccc4c(c3)CCN(C[C@H](O)CO)CC4)no2)cc1C#N [Example 116, 5-(3-{34[(2S)-2,3-dihydroxypropyl]-2,3,4,5-tetrahydro-1H-3-benzazepin-7-yl}-1,2,4-oxadiazol-5-yl)-2-(ethyloxy)-3-pyridinecarbonitrile]	≤ 1000 nM	≤ 100 nM
Cc1c(-c2noc(-c3ccc(OC(C)C)c(C#N)c3)n2)ccc2c1CCN(CC(=O)N[C@H](C)CO)C2 [Example 118, 2-[6-(5-{3-cyano-4-[(1-methylethyl)oxy]phenyl}-1,2,4-oxadiazol-3-yl)-5-methyl-3,4-dihydro-2(1H)-isoquinolinyl]-N-(1R)-2-hydroxy-1-methylethyl]acetamide hydrochloride]	≤ 100 nM	≤ 10 nM
Cc1c(-c2noc(-c3ccc(OC(C)C)c(C#N)c3)n2)ccc2c1CCN(CC(=O)N[C@@H](C)CO)C2 [Example 119, 2-[6-(5-{3-cyano-4-[(1-methylethyl)oxy]phenyl}-1,2,4-oxadiazol-3-yl)-5-methyl-3,4-dihydro-2(1H)-isoquinolinyl]-N-[(1S)-2-hydroxy-1-methylethyl]acetamide hydrochloride]	≤ 10 nM	≤ 10 nM
Cc1c(-c2noc(-c3ccc(OC(C)C)c(C#N)c3)n2)ccc2c1CCN(CC(=O)NCCO)C2 [Example 122, 2-[6-(5-{3-cyano-4-[(1-methylethyl)oxy]phenyl}-1,2,4-oxadiazol-3-yl)-5-methyl-3,4-dihydro-2(1H)-isoquinolinyl]-N-(2-hydroxyethyl)acetamide hydrochloride]	≤ 10 nM	≤ 10 nM
Cc1c(-c2noc(-c3ccc(OC(C)C)c(C#N)c3)n2)ccc2c1CCN(CC(=O)N1CC(O)C1)C2 [Example 123, 5-(3-{2-[2-(3-hydroxy-1-azetidinyl)-2-oxoethyl]-5-methyl-1,2,3,4-tetrahydro-6-isoquinolinyl}-1,2,4-oxadiazol-5-yl)-2-[(1-methylethyl)oxy]benzonitrile hydrochloride]	≤ 100 nM	≤ 10 nM
Cc1c(-c2noc(-c3ccc(OC(C)C)c(C#N)c3)n2)ccc2c1CCN(CC(=O)NC[C@H](O)CO)C2 [Example 124, 2-[6-(5-{3-cyano-4-[(1-methylethyl)oxy]phenyl}-1,2,4-oxadiazol-3-yl)-5-methyl-3,4-dihydro-2(1H)-isoquinolinyl]-N-[(2S)-2,3-dihydroxypropyl]acetamide hydrochloride]	≤ 100 nM	≤ 10 nM
Cc1c(-c2noc(-c3ccc(OC(C)C)c(C#N)c3)n2)ccc2c1CCN(CC(=O)NC(CO)CO)C2 [Example 125, 2-[6-(5-{3-cyano-4-[(1-methylethyl)oxy]phenyl}-1,2,4-oxadiazol-3-yl)-5-methyl-3,4-dihydro-2(1H)-isoquinolinyl]-N-[2-hydroxy-1-(hydroxymethyl)ethyl]acetamide hydrochloride]	≤ 100 nM	≤ 10 nM
Cc1c(-c2noc(-c3ccc(OC(C)C)c(C#N)c3)n2)ccc2c1CCN(C(=O)CNC[C@@H](C)O)C2 [Example 129, 5-[3-(2-{N-[(2R)-2-hydroxypropyl]glycyl}-5-methyl-1,2,3,4-tetrahydro-6-isoquinolinyl)-1,2,4-oxadiazol-5-yl]-2-[(1-methylethyl)oxy]benzonitrile hydrochloride]	> 10000 nM	≤ 10 nM
Cc1c(-c2noc(-c3cnc(OC(C)C)c(C#N)c3)n2)ccc2c1CCN(C[C@H](O)CO)C2 [Example 132, 5-(3-{2-[(2S)-2,3-dihydroxypropyl]-5-methyl-1,2,3,4-tetrahydro-6-isoquinolinyl}-1,2,4-oxadiazol-5-yl)-2-[(1-methylethyl)oxy]-3-pyridinecarbonitrile]	≤ 1000 nM	≤ 100 nM
Cc1c(-c2noc(-c3cnc(OC(C)C)c(C#N)c3)n2)ccc2c1CCN(C[C@@H](O)CO)C2 [Example 133]	≤ 100 nM	≤ 100 nM
Cc1c(-c2noc(-c3cnc(OC(C)C)c(C#N)c3)n2)ccc2c1CCN(C(CO)CO)C2 [Example 134, 5-(3-{2-[2-hydroxy-1-(hydroxymethyl)ethyl]-5-methyl-1,2,3,4-tetrahydro-6-isoquinolinyl}-1,2,4-oxadiazol-5-yl)-2-[(1-methylethyl)oxy]-3-pyridinecarbonitrile hydrochloride]	≤ 100 nM	≤ 10 nM
N#Cc1cc(-c2nc(-c3ccc4c(c3)CCN(C[C@H](O)CO)CC4)no2)ccc1OCC(F)(F)F [Example 135, 5-(3-{3-[(2S)-2,3-dihydroxypropyl]-2,3,4,5-tetrahydro-1H-3-benzazepin-7-yl}-1,2,4-oxadiazol-5-yl)-2-[(2,2,2-trifluoroethyl)oxy]benzonitrile]	≤ 100 nM	≤ 100 nM
Cc1c(-c2noc(-c3ccc(OC(C)C)c(C#N)c3)n2)ccc2c1CCN(CC(=O)NCCO)CC2 [Example 146, 2-[7-(5-{3-cyano-4-[(1-methylethyl)oxy]phenyl}-1,2,4-oxadiazol-3-yl)-6-methyl-1,2,4,5-tetrahydro-3H-3-benzazepin-3-yl]-N-(2-hydroxyethyl)acetamide]	≤ 100 nM	≤ 10 nM
Cc1c(-c2noc(-c3ccc(OC(C)C)c(C#N)c3)n2)ccc2c1CCN(CC(=O)NC[C@@H](C)O)CC2 [Example 147, 2-[7-(5-{3-cyano-4-[(1-methylethyl)oxy]phenyl}-1,2,4-oxadiazol-3-yl)-6-methyl-1,2,4,5-tetrahydro-3H-3-benzazepin-3-yl]-N-[(2R)-2-hydroxypropyl]acetamide]	≤ 100 nM	≤ 10 nM
